Reference: US11476000B2, “Methods and systems using mathematical analysis and machine learning to diagnose disease” (Analytics For Life Inc., priority 2015, dated 2022)

Key:
[1] = test system: outbred pregnant Sprague-Dawley rats; experiment: Teratogenicity of maternal DMO administration in pregnant rats (CHD in progeny); format: in vivo; conditions: rat pups after DMO exposure, natural delivery, echocardiography
Description: (§1) To explore the potential deleterious long-term consequences of resolved CHDs, the exemplified rat model was developed that recapitulates many of the clinical presentations of CHD. To generate such a model, pregnant rats were treated with a chemical teratogen. […] Without wishing to be bound to particular theory, it is thought that DMO teratogenicity is mediated by oxidative stress which might be the result of the result of hypoxia reperfusion injury caused by bradycardias induced by disruption of calcium and potassium ion channels in embryonic myocytes. […] The administration of four 300 mg/kg doses every twelve hours beginning on the morning of gestation day (GD) 9 produces approximately a 50% incidence of CHD if fetuses are examined on GD 21, one day prior to natural parturition (see, e.g., Weston et al., “Co-variation in frequency and severity of cardiovascular and skeletal defects in Sprague-Dawley rats after maternal administration of dimethadione, the N-demethylated metabolite of trimethadione. Birth defects research Part B,” Developmental and reproductive toxicology, Vol. 92, Pages 206-15 (2011)). […] For example, in infants, approximately 80% of VSD resolves by one year of age, and in test rats after DMO exposure, about 80% of the VSD resolve spontaneously by weaning. […]

[2] = test system: test rats exposed to DMO in-utero; experiment: Cardiovascular adaptation to pregnancy in rats exposed to DMO in utero; format: in vivo, rat; conditions: in-utero exposed rats with resolved CHD; altered CO, SV, strain, elevated mean arterial pressure
Description: as §1

[3] = test system: outbred pregnant Sprague-Dawley rats; conditions: four 300 mg/kg doses every twelve hours beginning morning of GD 9; fetuses examined on GD 21; cited from earlier work
[4] = estimated; cited from earlier work

| Compound | VSD that resolve spontaneously by weaning [1] | adaptation of the cardiovascular system to pregnancy [2] | incidence of CHD [3] [%] | in utero exposures resulting in embryo/fetal loss, or malformations including a high incidence of CHD [4] [%] |
| --- | --- | --- | --- | --- |
| CC1(C)OC(=O)NC1=O [DMO, dimethadione] | approximately 80% | adapted poorly to the burden of pregnancy | ~50 |  |
| CN1C(=O)OC(C)(C)C1=O [trimethadione] |  |  |  | 80 |
